This passage reports inhibition and growth results from ChEMBL document CHEMBL1275384, “Structure-activity relationships of benzimidazole-based selective inhibitors of the mitogen activated kinase-5 signaling pathway” (2010).

Structures are written as SMILES.

The target in test [1] is T1, Dual specificity mitogen-activated protein kinase kinase 5 (Homo sapiens) (UniProt Q13163).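 Also: MEK5 activity stimulated by EGF, read out as phospho-ERK5 on Western blot after 1 h treatment, expressed relative to control.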
T1 sequence (whole entry): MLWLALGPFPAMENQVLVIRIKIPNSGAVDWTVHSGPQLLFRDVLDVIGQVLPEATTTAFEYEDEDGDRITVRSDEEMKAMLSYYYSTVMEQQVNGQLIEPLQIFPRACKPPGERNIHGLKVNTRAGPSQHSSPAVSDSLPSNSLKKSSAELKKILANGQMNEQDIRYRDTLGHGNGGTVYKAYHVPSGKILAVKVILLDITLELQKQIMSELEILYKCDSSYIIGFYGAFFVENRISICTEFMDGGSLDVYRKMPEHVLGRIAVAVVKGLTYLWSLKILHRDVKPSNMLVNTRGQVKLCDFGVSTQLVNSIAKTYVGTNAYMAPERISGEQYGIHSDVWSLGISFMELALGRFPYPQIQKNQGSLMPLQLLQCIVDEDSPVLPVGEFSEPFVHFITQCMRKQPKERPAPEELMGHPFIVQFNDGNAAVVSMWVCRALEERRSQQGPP
As to conditions: HEK293, at 10 µM.
Description: Inhibition of EGF-induced MEK5 activity in HEK293 cells assessed as phosphorylated ERK5 level at 10 uM after 1 hr by Western blotting relative to control

Test [2] deals with Dual specificity mitogen-activated protein kinase kinase; MEK1/2 (Homo sapiens) (UniProt P36507+Q02750). As to conditions: HEK293, at 10 µM.
Description: Inhibition of EGF-induced MEK1/2 activity in HEK293 cells assessed as phosphorylated ERK1/2 level at 10 uM after 1 hr by Western blotting relative to control
The subject of test [3] is BT-549. Briefly: Cytotoxicity against human BT549 cells at 10 uM assessed as cell growth relative to control. The format is functional. As to conditions: read-out: Activity.
Test [4] deals with MDA-N. Briefly: Cytotoxicity against human MDA-N cells at 10 uM assessed as cell growth relative to control. In kind it is functional. As to conditions: read-out: Activity.
The test system of test [5] is IGROV-1. The test can be described thus: Cytotoxicity against human IGROV1 cells at 10 uM assessed as cell growth relative to control. In kind it is functional. As to conditions: read-out: Activity.
The test system of test [6] is NCI-H522. The test can be described thus: Cytotoxicity against human NCI-H522 cells at 10 uM assessed as cell growth relative to control. The format is functional. As to conditions: read-out: Activity.
Test [7] has as its system K562. The test can be described thus: Cytotoxicity against human K562 cells at 10 uM assessed as cell growth relative to control. In kind it is functional. As to conditions: read-out: Activity.
Test [8] has as its system SK-OV-3. The test can be described thus: Cytotoxicity against human SKOV3 cells at 10 uM assessed as cell growth relative to control. The format is functional. As to conditions: read-out: Activity.
The subject of test [9] is SNB-75. The test can be described thus: Cytotoxicity against human SNB75 cells at 10 uM assessed as cell growth relative to control. As to conditions: read-out: Activity. The format is functional.
In test [10] the test system is HCT-116. Briefly: Cytotoxicity against human HCT116 cells at 10 uM assessed as cell growth relative to control. The format is functional. As to conditions: read-out: Activity.
In test [11] the test system is NCI-H23. Briefly: Cytotoxicity against human NCI-H23 cells at 10 uM assessed as cell growth relative to control. In kind it is functional. As to conditions: read-out: Activity.
For test [12], the system named is SF-539. The test can be described thus: Cytotoxicity against human SF539 cells at 10 uM assessed as cell growth relative to control. In kind it is functional. As to conditions: read-out: Activity.
Test [13] has as its system SNB-19. The test can be described thus: Cytotoxicity against human SNB19 cells at 10 uM assessed as cell growth relative to control. The format is functional. As to conditions: read-out: Activity.
Test [14] deals with SK-MEL-5. Briefly: Cytotoxicity against human SK-MEL-5 cells at 10 uM assessed as cell growth relative to control. In kind it is functional. As to conditions: read-out: Activity.
For test [15], the system named is M14. Briefly: Cytotoxicity against human M14 cells at 10 uM assessed as cell growth relative to control. The format is functional. As to conditions: read-out: Activity.
Test [16] relates to CCRF-CEM. The test can be described thus: Cytotoxicity against human CCRF-CEM cells at 10 uM assessed as cell growth relative to control. In kind it is functional. As to conditions: read-out: Activity.
Test [17] deals with DU-145. Briefly: Cytotoxicity against human DU145 cells at 10 uM assessed as cell growth relative to control. In kind it is functional. As to conditions: read-out: Activity.
The subject of test [18] is HL-60(TB). The test can be described thus: Cytotoxicity against human HL-60(TB) cells at 10 uM assessed as cell growth relative to control. As to conditions: read-out: Activity. The format is functional.
For test [19], the system named is RXF 393. Briefly: Cytotoxicity against human RXF393 cells at 10 uM assessed as cell growth relative to control. As to conditions: read-out: Activity. In kind it is functional.
Test [20] deals with A498. Briefly: Cytotoxicity against human A498 cells at 10 uM assessed as cell growth relative to control. The format is functional. As to conditions: read-out: Activity.
The subject of test [21] is OVCAR-5. Briefly: Cytotoxicity against human OVCAR5 cells at 10 uM assessed as cell growth relative to control. The format is functional. As to conditions: read-out: Activity.
The subject of test [22] is U-251. The test can be described thus: Cytotoxicity against human U251 cells at 10 uM assessed as cell growth relative to control. The format is functional. As to conditions: read-out: Activity.
Test [23] relates to HOP-62. Briefly: Cytotoxicity against human HOP62 cells at 10 uM assessed as cell growth relative to control. The format is functional. As to conditions: read-out: Activity.
The test system of test [24] is SN12C. The test can be described thus: Cytotoxicity against human SN12C cells at 10 uM assessed as cell growth relative to control. In kind it is functional. As to conditions: read-out: Activity.
Test [25] relates to MDA-MB-231. The test can be described thus: Cytotoxicity against human MDA-MB-231 cells at 10 uM assessed as cell growth relative to control. The format is functional. As to conditions: read-out: Activity.
The test system of test [26] is NCI/ADR-RES. The test can be described thus: Cytotoxicity against human NCI/ADR-RES cells at 10 uM assessed as cell growth relative to control. The format is functional. As to conditions: read-out: Activity.
Test [27] relates to PC-3. The test can be described thus: Cytotoxicity against human PC3 cells at 10 uM assessed as cell growth relative to control. The format is functional. As to conditions: read-out: Activity.

Dual specificity mitogen-activated protein kinase kinase; MEK1/2 (Homo sapiens), sequence (P36507 whole entry, looked up): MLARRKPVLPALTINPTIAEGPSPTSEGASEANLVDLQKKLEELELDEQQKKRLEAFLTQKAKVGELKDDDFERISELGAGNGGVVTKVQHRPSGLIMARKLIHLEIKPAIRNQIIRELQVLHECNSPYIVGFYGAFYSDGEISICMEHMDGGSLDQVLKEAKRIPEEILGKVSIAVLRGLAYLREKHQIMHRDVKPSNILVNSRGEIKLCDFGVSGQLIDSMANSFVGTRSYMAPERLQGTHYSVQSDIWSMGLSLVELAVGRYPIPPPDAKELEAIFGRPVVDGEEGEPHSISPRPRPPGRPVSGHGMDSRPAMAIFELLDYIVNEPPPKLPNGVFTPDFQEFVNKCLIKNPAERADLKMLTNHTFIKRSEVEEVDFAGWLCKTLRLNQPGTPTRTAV
Dual specificity mitogen-activated protein kinase kinase; MEK1/2 (Homo sapiens), sequence (Q02750 whole entry, looked up): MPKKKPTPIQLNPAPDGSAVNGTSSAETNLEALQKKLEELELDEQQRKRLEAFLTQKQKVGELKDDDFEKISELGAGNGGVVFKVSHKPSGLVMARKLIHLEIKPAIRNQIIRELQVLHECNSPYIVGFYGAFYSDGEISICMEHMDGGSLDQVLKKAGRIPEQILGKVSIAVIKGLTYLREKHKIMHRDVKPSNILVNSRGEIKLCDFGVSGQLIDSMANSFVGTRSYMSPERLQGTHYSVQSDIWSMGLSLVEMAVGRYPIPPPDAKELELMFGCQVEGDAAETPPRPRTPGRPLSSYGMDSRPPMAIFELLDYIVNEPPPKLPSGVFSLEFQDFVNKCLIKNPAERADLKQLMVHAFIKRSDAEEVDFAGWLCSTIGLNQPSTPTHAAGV

What is called inhibition is how much of the control response was suppressed. High values mean a response far below the control, low ones a response near the control. Turning to `CC(C)Oc1cc(NCc2ccccc2)c2ncn(C(C)C)c2c1`, the inhibition came out at 22% in [1] and 0% in test [2].

For the compound `N#CC(=C(/N)Sc1ccccc1N)/C(C#N)=C(\N)Sc1ccccc1N`, the inhibition in test [1] stood at 27%.

With `COc1cc(N)c2c(c1)N(C(C)C)CN2`, the inhibition stood at 42% in test [1] and 18% in test [2].

In turn, `CCCOc1cc(NCc2ccccc2)c2ncn(C(C)C)c2c1` registered an inhibition in [1] of 24%.

`CCOc1cc(NCc2ccccc2)c2ncn(C(C)C)c2c1` had an inhibition in [1] of 63%.

As to `CC(C)n1cnc2c(NCc3ccccc3)cc(OCCCN3CCOCC3)cc21`, the inhibition in test [1] is 0%; in test [2] it was 92%.

For `CCOCCOc1cc(NCc2ccccc2)c2ncn(C(C)C)c2c1`, the inhibition in test [1] stood at 75%; in [2] it was 100%.

Turning to `CN1CCN(c2ccc3[nH]c(-c4ccc5[nH]c(-c6ccc(O)cc6)nc5c4)nc3c2)CC1` [HOECHST 33258], the growth at 10 µM in test [3] is -4%; in [4] it was -5.06%; in test [5], -4%; in test [6] it was -5.52%; in test [7], -5.22%; in [8], -4%. Besides, the growth at 10 µM was -4% in [9]; -4.52% in test [10]; -4% in test [11]; -4% in test [12]; -4% in test [13]; -4.01% in [14]. Besides, the growth at 10 µM was -4% in [15]; -4.89% in test [16]; -4% in [17]; -4.62% in [18]; -4% in test [19]; -4% in test [20]. Further, the growth at 10 µM in test [21], in test [22], in [23], in test [24], in [25] and in test [26] was -4% throughout. In test [27], the growth at 10 µM was -4%. Also, the inhibition in [1] was 30%; in [2], 22%.

On to `CCCCOc1cc(NCc2ccccc2)c2ncn(C(C)C)c2c1`, for which the inhibition in test [1] was 5%.
